Test results from patent publication US10662124B2, “Fertilizer composition containing oxidized glutathione and fertilizer element for foliar application” (Kaneka Corporation, priority 2015, dated 2020).

Columns and labels:
[1] = test system: Lettuce seedlings (Green leaf lettuce, Sakata Seed Corporation); assay: Example 2: effects of application on leaf surface, lettuce seedling-raising test; type: in vivo; settings: for Weight (fresh weight, average, of the terrestrial parts): 2 weeks, n=3; for Growth rate (fresh weight of terrestrial parts relative to Control group): Control group = 100
Procedure: (§1) Lettuce seedlings (Green leaf lettuce, Sakata Seed Corporation) were raised under the conditions described below.
(§2) Place: Inside a plant incubator
(§3) Soil: Black soil (40 ml/pot)
(§4) Light: 115 μmol m^−2 s^−1 (10,000 lux) (light period: 16 hours; dark period: 8 hours)
Number of tested plants (n): 3
(§5) Water supply: During the seedling-raising test, water was adequately supplied so as to prevent the soil in the pot from being dehydrated (about 20 ml/week).
Test groups: Four test groups: i.e., Control group, Comparative group 1, Comparative group 2, and Invention group, were provided as shown in Table 3 below.
(§6) Control group was tested through application of fertilizer elements (nitrogen, phosphorus, and potassium) only to soil without the application of GSSG.
(§7) In the case of Control group, soil was prepared to comprise nitrogen, phosphorus, and potassium in an amount of 40 mg each (120 mg in total per pot) in terms of N, P2O5, and K2O, respectively, at the time of sowing. Specifically, 40 ml of soil, 156 mg of ammonium sulfate, 66 mg of monobasic ammonium phosphate, and 80 mg of potassium sulfate were weighed and introduced into a container, these components were mixed to prepare a homogeneous composition, and the resultant was introduced into a pot. Ammonium sulfate used in the experiment contained 21% of nitrogen (in terms of N), and monobasic ammonium phosphate contained 11% of nitrogen (in terms of N) and 61% of phosphorus (in terms of P2O5), and potassium sulfate contained 50% of potassium (in terms of K2O) (based on the indication of each product).
(§8) Lettuce seeds were sowed in soil in the pot and the seedling-raising test was then initiated.
Comparative group 1 was tested through application of GSSG and a fertilizer elements (nitrogen, phosphorus, and potassium) only to soil.
The method for application of fertilizer elements to soil and the amount of application are as described above with reference to Control group.
GSSG was applied to soil with the addition of an aqueous solution of GSSG to soil. At the outset, an aqueous solution of GSSG (in terms of free GSSG, the same applies hereinbelow) dissolved at 300 ppm in water was prepared. Subsequently, the aqueous solution of GSSG was applied in an amount of 4 ml each (12 ml in total) three separate times at intervals of 3 days from 6 days after seedling raising was initiated. Thus, 3.6 mg of GSSG (in terms of free GSSG) was applied during the test period per pot. […]
In Invention group, soil was prepared to contain the fertilizer elements (i.e., 36 mg each of nitrogen, phosphorus, and potassium in terms of N, P2O5, and K2O, respectively, 108 mg in total per pot) at the time of sowing. Specifically, 40 ml of soil and, as fertilizer elements, 140.4 mg of ammonium sulfate, 59.4 mg of ammonium phosphate, and 72 mg of potassium sulfate, were weighed and introduced into a container, these components were mixed to prepare a homogeneous composition, and the resultant was then introduced into a pot.
GSSG was spray-applied to the leaf surface as described below. The finely-powdered water-soluble preparation (1) of the formulation A as described in Example 1 (33.8 mg) was dissolved in 12 ml of water to prepare an aqueous solution containing GSSG and fertilizer elements. […]

[2] = test system: Lettuce seedlings (Green leaf lettuce, Sakata Seed Corporation); assay: Example 6: spray-application to leaf surface with different amounts of fertilizer elements, lettuce seedling-raising test; type: in vivo
Procedure: as §1, §2, §3, §4
Number of tested plants (n): 4
as §5
Test groups: […] test groups: i.e., Control group, Comparative group 7, Formulation group 1 (15 parts of the fertilizer), Formulation group 2 (30 parts of the fertilizer), Formulation group 3 (100 parts of the fertilizer), Formulation group 4 (150 parts of the fertilizer), Formulation group 5 (200 parts of the fertilizer), and Formulation group 6 (400 parts of the fertilizer), were provided as shown in Table 11 below.
as §6
as §7, with “contain” for “comprise”, “elements” for “components”, “N),” for “N), and”
as §8
Comparative group 7 was tested through application of GSSG to the leaf surface and fertilizer elements (nitrogen, phosphorus, and potassium) to soil. […]

Oxidized glutathione [GSSG]
Plant growth promotion versus Control group ([1]; Comparative group 1 (GSSG to soil) compared with Control group): plant growth is promoted
Weight (fresh weight, average, of the terrestrial parts) ([1]; GSSG applied to soil, 3.6 mg per pot in three applications, fertilizer elements to soil): 90 mg
Growth rate (fresh weight of terrestrial parts relative to Control group) ([1]; GSSG applied to soil, 3.6 mg per pot, fertilizer elements to soil): 130%
Growth rate (fresh weight of terrestrial parts relative to Control group) ([1]; sprayed to the leaf surface three times, 12 ml in total per pot (3.5-3.6 mg GSSG)): 149%
Weight (fresh weight, average, of the terrestrial parts) ([1]; sprayed to the leaf surface three times, 12 ml in total per pot (3.5-3.6 mg GSSG), remaining fertilizer elements to soil): 103 mg
Weight (fresh weight, average, of the terrestrial parts) ([2]; 2 weeks, n=4, 3.5 mg GSSG with 0-400 parts of fertilizer per 100 parts GSSG sprayed to leaf surface three times, 12 ml in total per pot, rest of fertilizer to soil): 88 mg
Plant growth promotion versus Control group ([2]; Comparative group 7 compared with Control group): plant growth is promoted
Growth rate (fresh weight of terrestrial part relative to Control group) ([2]; Control group = 100, 3.5 mg GSSG with 0-400 parts of fertilizer per 100 parts GSSG sprayed to leaf surface): 131%
